We go through 33 molecules from patent publication US12479830B2, “Homopiperazinyl and homopiperidinyl quinazolin-4(3H)-one derivatives having multimodal activity against pain” (ESTEVE PHARMACEUTICALS, S.A., priority 2019, dated 2025).

Test [1] deals with Human α2δ-1 subunit of Cav2.2 calcium channel (Homo sapiens, UniProt P54289). In words: Human α2δ-1 subunit of Cav2.2 calcium channel assay ([3H]-gabapentin binding). Conditions: binding to the α2δ-1 subunit of voltage-gated calcium channels, expressed as Ki class; + also covers inhibition between 1% and 50%. A digest of the protocol: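 Human α2δ-1 enriched membranes (2.5 μg) incubated 60 min at 27° C. with 15 nM [3H]-gabapentin in 10 mM Hepes-KOH pH 7.4; non-specific binding with 10 μM pregabalin. Filtration binding; % inhibition at 1 or 10 μM, or Ki from five concentrations.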

Another test concerns the target T1, Human σ1 receptor (Homo sapiens, UniProt Q99720).
T1 construct: expressed in transfected cells; host or cells: HEK-293
In words: Human σ1 receptor radioligand assay ([3H](+)-pentazocine binding). The conditions noted are these: binding to the σ1 receptor, expressed as Ki class; + also covers inhibition between 1% and 50%. A digest of the protocol: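 Membranes (7 μg) were incubated with 5 nM [3H](+)-pentazocine in 50 mM Tris-HCl pH 8 for 120 min at 37° C. Non-specific binding was defined with 10 μM haloperidol. Values are % inhibition at 1 or 10 μM or Ki from five concentrations, read by filtration and scintillation counting.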

T1 sequence (Q99720 whole entry): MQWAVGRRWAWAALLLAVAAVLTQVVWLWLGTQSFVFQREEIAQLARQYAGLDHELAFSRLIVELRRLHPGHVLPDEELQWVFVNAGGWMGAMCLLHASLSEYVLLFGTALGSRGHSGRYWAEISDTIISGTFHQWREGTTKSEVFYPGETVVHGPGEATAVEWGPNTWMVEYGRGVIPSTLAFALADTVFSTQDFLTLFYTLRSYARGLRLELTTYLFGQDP
Human α2δ-1 subunit of Cav2.2 calcium channel, sequence (P54289 25-1103): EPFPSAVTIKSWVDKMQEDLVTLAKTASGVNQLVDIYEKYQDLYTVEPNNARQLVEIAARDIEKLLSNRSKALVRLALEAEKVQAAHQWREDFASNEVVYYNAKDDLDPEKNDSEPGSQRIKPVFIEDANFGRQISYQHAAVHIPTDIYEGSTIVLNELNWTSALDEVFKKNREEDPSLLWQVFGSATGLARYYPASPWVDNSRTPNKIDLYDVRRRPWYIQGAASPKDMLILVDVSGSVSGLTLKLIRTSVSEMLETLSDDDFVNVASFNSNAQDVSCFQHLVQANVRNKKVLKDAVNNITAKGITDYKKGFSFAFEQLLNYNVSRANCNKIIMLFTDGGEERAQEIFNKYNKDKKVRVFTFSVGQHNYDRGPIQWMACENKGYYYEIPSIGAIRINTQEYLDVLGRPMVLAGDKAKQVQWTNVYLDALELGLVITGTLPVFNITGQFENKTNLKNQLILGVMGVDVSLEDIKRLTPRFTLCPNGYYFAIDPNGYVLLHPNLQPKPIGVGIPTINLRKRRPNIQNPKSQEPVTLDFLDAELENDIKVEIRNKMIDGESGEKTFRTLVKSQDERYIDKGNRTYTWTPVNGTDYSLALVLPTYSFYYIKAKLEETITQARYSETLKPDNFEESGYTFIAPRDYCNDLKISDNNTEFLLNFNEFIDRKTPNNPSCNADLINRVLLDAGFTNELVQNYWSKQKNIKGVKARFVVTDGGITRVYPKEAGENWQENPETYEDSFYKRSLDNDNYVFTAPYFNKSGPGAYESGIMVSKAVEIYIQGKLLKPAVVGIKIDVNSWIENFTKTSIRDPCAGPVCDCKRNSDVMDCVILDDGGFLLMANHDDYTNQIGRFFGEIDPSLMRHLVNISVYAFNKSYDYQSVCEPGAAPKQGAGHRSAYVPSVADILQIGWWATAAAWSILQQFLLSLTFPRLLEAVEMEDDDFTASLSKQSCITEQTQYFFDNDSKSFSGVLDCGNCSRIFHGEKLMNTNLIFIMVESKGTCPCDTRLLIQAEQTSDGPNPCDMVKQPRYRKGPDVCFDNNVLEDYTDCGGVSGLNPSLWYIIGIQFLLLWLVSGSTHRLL

In the case of `CCCC(c1nc2ccc(F)c(F)c2c(=O)n1CC)N1CCCN(CC)CC1` (stereo not drawn) [Example 78, 3-ethyl-2-(1-(4-ethyl-1,4-diazepan-1-yl)butyl)-5,6-difluoroquinazolin-4(3H)-one], the Ki (usually a dissociation constant, usually derived from enzyme kinetics or from competition with a known ligand) is 0.5 to 5 µM in test [1] and < 0.5 µM on Human σ1 receptor.

Take `CCCC(c1nc2ccc(Cl)cc2c(=O)n1CCC)N1CCCN(CC)CC1` (stereo not drawn) [Example 79, 6-chloro-2-(1-(4-ethyl-1,4-diazepan-1-yl)butyl)-3-propylquinazolin-4(3H)-one]: the inhibition constant (Ki) (in test [1]; at Human σ1 receptor) was < 0.5 µM each time.

In the case of `CCCC(c1nc2ccc(Br)cc2c(=O)n1CC)N1CCN2CCC1CC2` (stereo not drawn) [Example 80, 2-(1-(1,4-diazabicyclo[3.2.2]nonan-4-yl)butyl)-6-bromo-3-ethylquinazolin-4(3H)-one], the Ki is > 5 µM in test [1] and > 1 µM on Human σ1 receptor.

`CCCC(c1nc2ccc(F)c(F)c2c(=O)n1CC)N1CCCNCC1` (stereo not drawn) [Example 81, 2-(1-(1,4-diazepan-1-yl)butyl)-3-ethyl-5,6-difluoroquinazolin-4(3H)-one]: the figures for the Ki (in test [1]; on Human σ1 receptor) were < 0.5 µM and 0.5 to 1 µM, respectively.

Take `CCCC(c1nc2ccc(Br)c(Cl)c2c(=O)n1CC)N1CCCNCC1` (stereo not drawn) [Example 82, 2-(1-(1,4-diazepan-1-yl)butyl)-6-bromo-5-chloro-3-ethylquinazolin-4(3H)-one]: the Ki in test [1] was 0.5 to 5 µM; at Human σ1 receptor it was 0.5 to 1 µM.

Turning to `CCCC(c1nc2ccc(Br)c(Cl)c2c(=O)n1CC)N1CCCN(CC)CC1` (stereo not drawn) [Example 83, 6-bromo-5-chloro-3-ethyl-2-(1-(4-ethyl-1,4-diazepan-1-yl)butyl)quinazolin-4(3H)-one], the inhibition constant (Ki) in test [1] was > 5 µM; at Human σ1 receptor it was < 0.5 µM.

For the molecule `CCCC(c1nc2ccc(Br)cc2c(=O)n1C)N1CCCN(C)CC1` (stereo not drawn) [Example 84, 6-bromo-3-methyl-2-(1-(4-methyl-1,4-diazepan-1-yl)butyl)quinazolin-4(3H)-one], the figures for the Ki (in test [1]; at Human σ1 receptor) were 0.5 to 5 µM and < 0.5 µM, respectively.

For `CCCC(c1nc2ccc(Br)cc2c(=O)n1C)N1CCCN(CC)CC1` (stereo not drawn) [Example 85, 6-bromo-2-(1-(4-ethyl-1,4-diazepan-1-yl)butyl)-3-methylquinazolin-4(3H)-one], the Ki in test [1] is > 5 µM; at Human σ1 receptor, < 0.5 µM.

Take `CCCC(c1nc2cccnc2c(=O)n1CC)N1CCCN(C)CC1` (stereo not drawn) [Example 86, 3-ethyl-2-(1-(4-methyl-1,4-diazepan-1-yl)butyl)pyrido[3,2-d]pyrimidin-4(3H)-one]: the inhibitory constant (Ki) is > 5 µM in test [1] and > 1 µM at Human σ1 receptor.

As for `CCCC(c1nc2cc(Cl)c(Cl)cc2c(=O)n1CC)N1CCCN(C)CC1` (stereo not drawn) [Example 87, 6,7-dichloro-3-ethyl-2-(1-(4-methyl-1,4-diazepan-1-yl)butyl)quinazolin-4(3H)-one], the inhibition constant (Ki) (in test [1]; on Human σ1 receptor) was < 0.5 µM in each case.

As to `CCCC(c1nc2cccnc2c(=O)n1CC)N1CCCN(CC)CC1` (stereo not drawn) [Example 88, 3-ethyl-2-(1-(4-ethyl-1,4-diazepan-1-yl)butyl)pyrido[3,2-d]pyrimidin-4(3H)-one], the inhibitory constant (Ki) in test [1] is > 5 µM; on Human σ1 receptor, > 1 µM.

As to `CCCC(c1nc2cc(F)c(Cl)cc2c(=O)n1CC)N1CCCN(C)CC1` (stereo not drawn) [Example 89, 6-chloro-3-ethyl-7-fluoro-2-(1-(4-methyl-1,4-diazepan-1-yl)butyl)quinazolin-4(3H)-one], the Ki (in test [1]; at Human σ1 receptor) was < 0.5 µM each time.

In the case of `CCCC(c1nc2cc(F)c(Cl)cc2c(=O)n1CC)N1CCCNCC1` (stereo not drawn) [Example 90, 2-(1-(1,4-diazepan-1-yl)butyl)-6-chloro-3-ethyl-7-fluoroquinazolin-4(3H)-one], the Ki in test [1] was < 0.5 µM; on Human σ1 receptor, > 1 µM.

In the case of `CCCC(c1nc2cc(Cl)c(Cl)cc2c(=O)n1CC)N1CCCNCC1` (stereo not drawn) [Example 91, 2-(1-(1,4-diazepan-1-yl)butyl)-6,7-dichloro-3-ethylquinazolin-4(3H)-one], the Ki in test [1] was < 0.5 µM; on Human σ1 receptor, 0.5 to 1 µM.

Turning to `CCC[C@H](c1nc2ccc(Br)cc2c(=O)n1CC)N1CCN[C@H](C)CC1` [Example 92, 6-bromo-3-ethyl-2-((R)-1-((R)-5-methyl-1,4-diazepan-1-yl)butyl)quinazolin-4(3H)-one], the values for the inhibition constant Ki (in test [1]; at Human σ1 receptor) were 0.5 to 5 µM and > 1 µM, respectively.

In the case of `CCC[C@H](c1nc2ccc(Br)cc2c(=O)n1CC)N1CCN[C@@H](C)CC1` [Example 93, 6-bromo-3-ethyl-2-((R)-1-((S)-5-methyl-1,4-diazepan-1-yl)butyl)quinazolin-4(3H)-one], the Ki was < 0.5 µM in test [1] and 0.5 to 1 µM at Human σ1 receptor.

Take `CCC[C@@H](c1nc2ccc(Br)cc2c(=O)n1CC)N1CCN[C@H](C)CC1` [Example 94, 6-bromo-3-ethyl-2-((S)-1-((R)-5-methyl-1,4-diazepan-1-yl)butyl)quinazolin-4(3H)-one]: the inhibition constant (Ki) was 0.5 to 5 µM in test [1] and > 1 µM at Human σ1 receptor.

As for `CCC[C@@H](c1nc2ccc(Br)cc2c(=O)n1CC)N1CCN[C@@H](C)CC1` [Example 95, 6-bromo-3-ethyl-2-((S)-1-((S)-5-methyl-1,4-diazepan-1-yl)butyl)quinazolin-4(3H)-one], the figures for the inhibition constant Ki (in test [1]; at Human σ1 receptor) were > 5 µM and > 1 µM, respectively.

`CCC[C@H](c1nc2cc(F)c(Br)cc2c(=O)n1CC)N1CCNC[C@H](C)C1` [Example 96, 6-Bromo-3-ethyl-7-fluoro-2-((R)-1-((S)-6-methyl-1,4-diazepan-1-yl)butyl)quinazolin-4(3H)-one]: the Ki in test [1] was < 0.5 µM; at Human σ1 receptor, 0.5 to 1 µM.

Take `CCC[C@H](c1nc2cc(F)c(Br)cc2c(=O)n1CC)N1CCNC[C@@H](C)C1` [Example 97, 6-bromo-3-ethyl-7-fluoro-2-((R)-1-((R)-6-methyl-1,4-diazepan-1-yl)butyl)quinazolin-4(3H)-one]: the inhibition constant (Ki) is < 0.5 µM in test [1] and 0.5 to 1 µM on Human σ1 receptor.

As to `CCC[C@@H](c1nc2cc(F)c(Br)cc2c(=O)n1CC)N1CCNC[C@H](C)C1` [Example 98], the inhibitory constant (Ki) is 0.5 to 5 µM in test [1] and > 1 µM at Human σ1 receptor.

Take `CCC[C@@H](c1nc2cc(F)c(Br)cc2c(=O)n1CC)N1CCNC[C@@H](C)C1` [Example 99]: the inhibitory constant (Ki) in test [1] is 0.5 to 5 µM; on Human σ1 receptor it was > 1 µM.

For the molecule `CCCC(c1nc2cccnc2c(=O)n1CC)N1CCCNCC1` (stereo not drawn) [Example 100, 2-(1-(1,4-diazepan-1-yl)butyl)-3-ethylpyrido[3,2-d]pyrimidin-4(3H)-one], the Ki is > 5 µM in test [1] and > 1 µM on Human σ1 receptor.

In the case of `CCC[C@H](c1nc2ccc(Br)cc2c(=O)n1CC)N1CCN(C)C[C@H](COC)C1` [Example 105, 6-Bromo-3-ethyl-2-((R)-1-((S)-6-(methoxymethyl)-4-methyl-1,4-diazepan-1-yl)butyl)quin-4 (3H)-one], the Ki in test [1] is 0.5 to 5 µM; on Human σ1 receptor it was > 1 µM.

Turning to `CCC[C@H](c1nc2ccc(Br)cc2c(=O)n1CC)N1CCN(C)C[C@@H](COC)C1` [Example 106, 6-bromo-3-ethyl-2-((R)-1-((R)-6-(methoxymethyl)-4-methyl-1,4-diazepan-1-yl)butyl)quinazolin-4(3H)-one], the figures for the Ki (in test [1]; at Human σ1 receptor) were < 0.5 µM and > 1 µM, respectively.

On to `CCC[C@@H](c1nc2ccc(Br)cc2c(=O)n1CC)N1CCN(C)C[C@H](COC)C1` [Example 107, 6-bromo-3-ethyl-2-((S)-1-((S)-6-(methoxymethyl)-4-methyl-1,4-diazepan-1-yl)butyl)quinazolin-4(31-)-one], for which the Ki in test [1] was in the range of 0.5 to 5 µM; at Human σ1 receptor it was 0.5 to 1 µM.

Consider `CCC[C@@H](c1nc2ccc(Br)cc2c(=O)n1CC)N1CCN(C)C[C@@H](COC)C1` [Example 108, 6-bromo-3-ethyl-2-((S)-1-((R)-6-(methoxymethyl)-4-methyl-1,4-diazepan-1-yl)butyl)quinazolin-4(3/1)-one], for which the figures for the inhibition constant Ki (in test [1]; on Human σ1 receptor) were > 5 µM and 0.5 to 1 µM, respectively.

As to `CCC[C@H](c1nc2cc(Cl)c(Cl)cc2c(=O)n1CC)N1CCNC[C@H](C)C1` [Example 109, 6,7-Dichloro-3-ethyl-2-((R)-1-((S)-6-methyl-1,4-diazepan-1-yl)butyl)quinazolin-4(3H)-one], the Ki was < 0.5 µM in test [1] and > 1 µM at Human σ1 receptor.

With `CCC[C@H](c1nc2cc(Cl)c(Cl)cc2c(=O)n1CC)N1CCNC[C@@H](C)C1` [Example 110, 6,7-dichloro-3-ethyl-2-((R)-1-((R)-6-methyl-1,4-diazepan-1-yl)butyl)quinazolin-4(3H)-one], the inhibitory constant (Ki) in test [1] was < 0.5 µM; on Human σ1 receptor it was > 1 µM.

For the molecule `CCC[C@@H](c1nc2cc(Cl)c(Cl)cc2c(=O)n1CC)N1CCNC[C@H](C)C1` [Example 111, 6,7-dichloro-3-ethyl-2-((S)-1-((S)-6-methyl-1,4-diazepan-1-yl)butyl)quinazolin-4(3H)-one], the inhibition constant (Ki) in test [1] was 0.5 to 5 µM; on Human σ1 receptor it was > 1 µM.

Regarding `CCC[C@@H](c1nc2cc(Cl)c(Cl)cc2c(=O)n1CC)N1CCNC[C@@H](C)C1` [Example 112, 6,7-dichloro-3-ethyl-2-((S)-1-((R)-6-methyl-1,4-diazepan-1-yl)butyl)quinazolin-4 (3H)-one], the Ki was > 5 µM in test [1] and > 1 µM on Human σ1 receptor.

On to `CCC[C@@H](c1nc2ccc(Br)cc2c(=O)n1CC)N1CCNC[C@@H](O)C1` [Example 113, 6-Bromo-3-ethyl-2-((S)-1-((R)-6-hydroxy-1,4-diazepan-1-yl)butyl)quinazolin-4(3H)-one], for which the values for the inhibition constant Ki (in test [1]; on Human σ1 receptor) were > 5 µM and > 1 µM, respectively.

In the case of `CCC[C@H](c1nc2ccc(Br)cc2c(=O)n1CC)N1CCNC[C@@H](O)C1` [Example 114, 6-bromo-3-ethyl-2-((R)-1-((R)-6-hydroxy-1,4-diazepan-1-yl)butyl)quinazolin-4(3H)-one], the results for the Ki (in test [1]; at Human σ1 receptor) were < 0.5 µM and > 1 µM, respectively.
